Literature values, collected in patent US20250303004A1, “RADIOPHARMACEUTICAL COMPOSITIONS FOR LOW TOXICITY ACTINIUM IN TARGETED RADIONUCLIDE THERAPY” (Curium US LLC, priority 2021, published 2025).
Where two headings read alike, the source gives them in different places.

Test system: men with mCRPC
Conditions: cited from earlier work
[1] = 73 patients, percentage in parentheses
[2] = Sathekge 2020, 73 patients, 4-8 MBq per cycle

For O=C(O)CC[C@H](NC(=O)N[C@@H](CCCCNC(=O)[C@H](Cc1ccc2ccccc2c1)NC(=O)[C@H]1CC[C@H](CNC(=O)CN2CCN(CC(=O)O)CCN(CC(=O)O)CCN(CC(=O)O)CC2)CC1)C(=O)O)C(=O)O [^225Ac-PSMA-617, metal not drawn], the “Median PFS” value (73 patients, 95% CI, 13.1-17.4 months) is listed as 15.2 months, the “Median OS” value (73 patients, 95% CI, 16.2-19.9 months) is listed as 18 months and the “Anemia, Grade I or II” value (73 patients) is listed as 22 patients. The “Anemia, Grade IV” value (73 patients) was 0 patients, the “Anorexia, Grade I or II” value (73 patients) was 23 patients and the “Anorexia, Grade III” value (73 patients) was 0 patients. For the same compound, the “Anorexia, Grade IV” value (73 patients) was 0 patients, the “Constipation, Grade I or II” value (73 patients) was 19 patients and the “Constipation, Grade III” value (73 patients) was 0 patients. The “Constipation, Grade IV” value (73 patients) was 0 patients, the “Dry eyes, Grade I or II” value (73 patients) was 4 patients and the “Dry eyes, Grade III” value (73 patients) was 0 patients. The “Dry eyes, Grade IV” value (73 patients) was 0 patients, the “Dry mouth, Grade I or II” value (73 patients) was 62 patients and the “Dry mouth, Grade III” value (73 patients) was 0 patients. The “Dry mouth, Grade IV” value (73 patients) was 0 patients, the “Dysgeusia, Grade I or II” value (73 patients) was 4 patients and the “Dysgeusia, Grade III” value (73 patients) was 0 patients. The “Dysgeusia, Grade IV” value (73 patients) was 0 patients, the “Dyspepsia, Grade I or II” value (73 patients) was 3 patients and the “Dyspepsia, Grade III” value (73 patients) was 0 patients. For the same compound, the “Dyspepsia, Grade IV” value (73 patients) was 0 patients, the “Dysuria, Grade I or II” value (73 patients) was 13 patients and the “Dysuria, Grade III” value (73 patients) was 0 patients. For the same compound, the “Dysuria, Grade IV” value (73 patients) was 0 patients, the “Fatigue, Grade I or II” value (73 patients) was 37 patients and the “Fatigue, Grade III” value (73 patients) was 0 patients. The “Fatigue, Grade IV” value (73 patients) was 0 patients, the “Hypoalbuminemia, Grade I or II” value (73 patients) was 14 patients and the “Hypoalbuminemia, Grade III” value (73 patients) was 0 patients. For the same compound, the “Hypoalbuminemia, Grade IV” value (73 patients) was 0 patients, the “Leukopenia, Grade I or II” value (73 patients) was 7 patients and the “Leukopenia, Grade IV” value (73 patients) was 0 patients. The “Nausea, Grade I or II” value (73 patients) was 15 patients, the “Nausea, Grade III” value (73 patients) was 0 patients and the “Nausea, Grade IV” value (73 patients) was 0 patients. For the same compound, the “Renal Failure, Grade I or II” value (73 patients) was 18 patients, the “Thrombocytopenia, Grade I or II” value (73 patients) was 6 patients and the “Thrombocytopenia, Grade IV” value (73 patients) was 0 patients. The “Vomiting, Grade I or II” value (73 patients) was 4 patients, the “Vomiting, Grade III” value (73 patients) was 0 patients and the “Vomiting, Grade IV” value (73 patients) was 0 patients. The “Weight loss, Grade I or II” value (73 patients) was 28 patients, the “Weight loss, Grade III” value (73 patients) was 0 patients and the “Weight loss, Grade IV” value (73 patients) was 0 patients. The “patients with negative ^68Ga-PSMA PET/CT images post therapy” value (73 patients) was 29%, the “Anemia, Grade III” value [1] was 5 (7) patients and the “Leukopenia, Grade III” value [1] was 2 (3) patients. For the same compound, the “Renal Failure, Grade III” value [1] was 3 (4) patients, the “Renal Failure, Grade IV” value [1] was 2 (3) patients and the “Thrombocytopenia, Grade III” value [1] was 1 (1) patients. For the same compound, the “Biochemical response PSA50 (≥50% PSA decline)” value [2] was 70%, the OS [2] was 18.0 mo and the PFS [2] was 15.2 mo. For the same compound, the “Biochemical response PSA50 (≥50% PSA decline)” value (Sathekge 2020, 73 patients, 4-8 MBq per cycle, listed as PSMA-617) was 70%, the “patients with any decline in PSA” value (at the end of therapy, 73 patients) was 82% and the “patients who had passed away” value (of 73) was 13 patients. For the same compound, the “patients with disease progression” value (of 73) was 23 patients.
